The subject of data set [1] is bacterial log CFU/g ground chicken ground meat. The conditions noted are these: separately or in a mixture; cited from earlier work.
Data set [2] in a line: Powder flow determination (funnel flow, angle of repose). It is filed as physicochemical. To be noted: for flowability: 100 g, funnel outflow opening 15 mm. The method, then: 100 g of powdered calcium hypochlorite of sizes ≤355 μm and ≤500 μm was added, respectively, into a dry funnel (Ø110 mm, diameter of the outflow opening=15 mm), whose bottom opening has been blocked by a plastic cover. The bottom opening of the funnel was unblocked to measure the time needed for the entire sample to flow out. The flowability of particle sizes ≤355 μm and ≤500 μm is, respectively, 35.7 g/s and 37.4 g/s. The angle of repose was calculated as 29.5° and 26.8° for particle sizes 355 μm and ≤500 μm, respectively.

The nature of data set [3]: Dissolving time of powdered calcium hypochlorite in acetic acid/acetate buffer. The conditions noted are these: 2500 rpm. It counts as physicochemical. The method, then:
• I. 58±4 mg of all sizes of the powdered material was, respectively, dissolved in 100 mL 0.25% wt. acetic acid/acetate buffer. Particle size ≤250 μm dissolved within 10 seconds, ≤355 μm within 15 seconds and ≤500 μm within one minute and 25 seconds at 2500 rpm. • II. 58±4 mg of all sizes of the powdered material was, respectively, dissolved in 100 mL 3.0% wt. acetic acid/acetate buffer. Particle size ≤250 μm dissolved within 10 seconds, ≤355 μm within 25 seconds and ≤500 μm within 25 seconds at 2500 rpm. • III. 570±40 mg of all sizes of the powdered material was, respectively, dissolved in 100 mL 0.25% wt. acetic acid/acetate buffer. Particle size ≤250 μm dissolved within 15 seconds, ≤355 μm within 45 seconds and ≤500 μm within one minute and 35 seconds at 2500 rpm. • IV. 570±40 mg of all sizes of the powdered material was, respectively, dissolved in 100 mL 3.0% wt. acetic acid/acetate buffer. Repeated with 3.0% acetic acid/acetate buffer. Particle size ≤250 μm dissolved within 15 seconds, ≤355 μm within 15 seconds and ≤500 μm within 20 seconds at 2500 rpm.

The conditions of data set [4]: cited from earlier work.
For data set [5] the following is noted: cited from earlier work. The source holds these as a separate data set.
In another data set the test system is human rhinovirus (HRV). To be noted: low concentration nasal irrigation solution, in vitro, nasal epithelial cells; cited from earlier work.
The subject of the next data set is avian influenza virus. The conditions noted are these: similar formulations, in vitro; cited from earlier work.
The next data set deals with S. aureus biofilms. Briefly: In vitro anti-biofilm effect, viable CFU counting. It counts as cell-based, Staphylococcus aureus. The conditions noted are these: 1% glutaric acid alone. The method, then:
Test organisms: Pseudomonas aeruginosa or Staphylococcus aureus wild-type strains Biofilm type: 48 hours- or 24 hours-old biofilms grown on semipermeable membranes placed on solidified medium supplemented with 0.5% glucose. In the case of 48 h-old biofilms, the membranes with biofilms were transferred onto fresh plates after 24 h.
Initial viable cell amount: 5×10^9 colony forming units (CFUs)
Treatment method: Membranes with biofilms were transferred to new plates. Eight-10 layers of sterile gauze were placed on the second membrane, and 1 ml of antimicrobial solution was pipetted on the gauze layers. The treatment was carried out at room temperature for 2-to-3 h, or 4-to-6 h. In the case of the 4-to-6 h treatments, the gauze layers were replaced with fresh gauze layers with 1 ml sample solution 2 or 3 h after the treatments had been initiated.
Evaluation method: The gauze layers were discarded, and each membrane with biofilms was transferred into a 15 ml tube containing 5 ml 0.9% NaCl, vortexed for 10 sec., sonicated in an ultrasound bath for 10 min, and vortexed again for 10 sec. Ten-fold serial dilutions were made, and 10 ul of each dilution was spot-plated on LB plates for viable CFU counting.

Molecules are shown by their SMILES. Where two headings read alike, the source gives them in different places. A value given as a limit tells only on which side of the number the result lay.

The source of these data is patent US12611425B2, “Compositions and methods for treatment and prevention of pathogens” (WIAB WATER INNOVATION AB, priority 2022, dated 2026).

As to `CC(=O)C(=O)O` [pyruvic acid], in data set [1], the “reduction of bacterial log CFU/g” value was around 2 log.
Take `O=C([O-])CCC(=O)O.[Na+]` [monosodium succinate]: the “reduction of bacterial log CFU/g” value in data set [1] is around 2 log.
As to `[Ca+2].[O-]Cl.[O-]Cl` [powdered calcium hypochlorite, calcium hypochlorite], the figures for the angle of repose in data set [2] (particle size 355 μm) and in data set [2] (particle size ≤500 μm) were 29.5 ° and 26.8 °, respectively. Besides, the flowability in data set [2] (particle size ≤355 μm) came to 35.7 g/s; in data set [2] (particle size ≤500 μm) it was 37.4 g/s. Further, the dissolving time in data set [3] (I: 58±4 mg in 100 mL 0.25% wt. acetic acid/acetate buffer, particle size ≤250 μm) is at most 10 s; in data set [3] (I: 58±4 mg in 100 mL 0.25% wt. buffer, particle size ≤355 μm), at most 15 s; in data set [3] (II: 58±4 mg in 100 mL 3.0% wt. acetic acid/acetate buffer, particle size ≤250 μm) it was at most 10 s; in data set [3] (II: 58±4 mg in 100 mL 3.0% wt. buffer, particle size ≤355 μm), at most 25 s; in data set [3] (II: 58±4 mg in 100 mL 3.0% wt. buffer, particle size ≤500 μm) it was at most 25 s; in data set [3] (III: 570±40 mg in 100 mL 0.25% wt. acetic acid/acetate buffer, particle size ≤250 μm), at most 15 s. For the same compound, the dissolving time in data set [3] (III: 570±40 mg in 100 mL 0.25% wt. buffer, particle size ≤355 μm) was at most 45 s; in data set [3] (IV: 570±40 mg in 100 mL 3.0% wt. acetic acid/acetate buffer, particle size ≤250 μm) it was at most 15 s; in data set [3] (IV: 570±40 mg in 100 mL 3.0% wt. buffer, particle size ≤355 μm), at most 15 s; in data set [3] (IV: 570±40 mg in 100 mL 3.0% wt. buffer, particle size ≤500 μm) it was at most 20 s.
`OCl` [hypochlorous acid]: the pKa entry in data set [4] is reported as “about 7”. Moreover, the standard reduction potential result in data set [5] (basic pH) is “+0.89”; in data set [5] (low pH) it was “+1.49”. In addition, in the data set with human rhinovirus (HRV), the virus-killing effect entry is “significant virus-killing effect”. Moreover, in the data set with avian influenza virus, the “effects against avian influenza virus” value was “good effects”.
For the compound `O=C(O)CCCC(=O)O` [glutaric acid], the “effect on the biofilm” value in the data set with S. aureus biofilms is listed as “only minor effect”.
